From patent US5763400A, “Ecdysis-triggering hormone compositions” (priority 1996, dated 1998)
Entries after “also recorded” stand apart in the source; their conditions may differ. Ends that are not written are not given here.

What was measured:
[1] = system: pharate 5th instar larvae; test: Injection into pharate 5th instar larvae: induction of pre-ecdysis and ecdysis behavior; format: in vivo, Manduca sexta; details: for biological activity of additional EG peptides: initial RPLC data on EG
Description: A peptide with ecdysis-triggering activity was also purified from an extract of 50 pharate pupal EG with reversed-phase liquid chromatography (RPLC) (FIG. 1A) . For HPLC fractionation, freshly-dissected EG were homogenized in acidic methanol (MeOH: H2 O:acetic acid, 90:9:1) and the supernatant was evaporated to dryness. Crude extracts of EG were fractionated with a Microsorb C4 column (wide pore 300 A, 4.6 mm/25 cm), with a linearly increasing gradient of acetonitrile (3 to 53% in 90 min) in constant 0.1% TFA/water using a flow rate of 1 ml/min. Fractions were collected based on UV absorbance (220 nm) and vacuum centrifuged to dryness. Individual fractions were re-suspended in physiological saline and injected into pharate fifth instar Manduca sexta larvae. Induction of preecdysis behavior, visible as synchronous dorso-ventral contractions in body segments, were scored as positive responses.
(§1) Natural ecdysis in pharate 5th instar larvae is preceded by a well-defined pre-ecdysis behavior, characterized by dorso-ventral contractions that occur synchronously in abdominal and thoracic segments (Copenhaver and Truman, 1982; Truman and Weeks, 1983, 1985). Contractions, visible as a dimpling of the dorso-lateral body wall, begin in the most posterior segment, and gradually spread anteriorly. Pre-ecdysis behavior typically lasts 60 to 80 min, and is followed by ecdysis behavior, which lasts about 10 min. Ecdysis behavior is characterized by a distinctly different motor pattern consisting of peristaltic waves of contractions, which originate in the most posterior segment and move anteriorly (Weeks and Truman, 1984). Using a pressure transducer to record changes in internal pressure, in vivo measurements of pre-ecdysis and ecdysis contraction patterns were obtained in pharate 5th instar larvae and pharate pupae. Internal hydrostatic pressure was measured in pharate 5th instar larvae and pharate pupae of Manduca sexta with a Gould-Statham P23-ID pressure transducer. The transducer was connected to a saline-filled tube which in turn was attached to the posterior dorsal horn of pharate 5th instar larvae and pharate pupae with low melting point dental wax.
During natural pre-ecdysis in the larva, dorso-ventral contractions typically occur every 10 to 12 seconds with a duration of 5 to 7 seconds (FIG. 2A). When pharate larvae were injected with Mas-ETH (20 pmol to 1 nmol), pre-ecdysis began within 2 to 10 min, and the pattern was indistinguishable from that observed under natural conditions (n=13). The pre-ecdysis induced by Mas-ETH injection lasted 35 to 65 min, and was followed by ecdysis (FIG. 2A).
At about 36 hours preceding natural ecdysis in pharate 5th instar larvae, the first signs of apolysis can be observed as an accumulation of molting fluid in the prothorax. About two hours later, head capsule slip occurs (Curtis et al., 1984). Premature ecdysis behavior induced by Mas-ETH injection (34-10 hours prior to natural ecdysis) lasted from 10 to 45 min. […] Mas-ETH triggered successful ecdysis only after the old cuticle is sufficiently digested, some 6 to 8 hr before normal ecdysis. Sensitivity to ETH, therefore, is shown to exist during the pharate stage.
The ETH-PRP1 peptide was dissolved into physiological saline and injected into pharate fifth instar Manduca sexta larvae. A dose range of 50 pmol to 5 nmol was tested.

[2] = Physiological actions of ETH-PRP2 (no method described)
[3] = system: pharate 5th instar larvae; test: Injection into pharate 5th instar larvae: induction of pre-ecdysis and ecdysis behavior; format: in vivo, Manduca sexta; details: injected into insect larvae
[4] = system: larval insects; test: Injection of synthetic Bom-ETH forms into larval insects; format: in vivo, Bombyx mori; details: free acid at doses much higher than the amidated form
Description: Synthetic Bom-ETH was prepared according to standard solid phase peptide synthesis methods by Research Genetics, Inc. (Birmingham, AL) to provide a peptide having the amino acid sequence of the 23 mer. Both the amidated and free --COOH terminal forms were prepared.

[5] = system: pharate fourth instar Manduca sexta larvae; test: Injection into pharate fourth instar larvae (liquid-filled head capsule stage), carboxy-terminus study; details: in vivo
Description: The amidated and acid form of the 26 mer of SEQ ID NO:3 was prepared using a solid state synthesizer. This procedure is the same as that described at example 7. The amidated and acid forms of ETH used in the present study were synthesized by Research Genetics Corporation using these standard protocols (5 mg. each of the amidated-ETH and the acid-ETH).

[6] = system: isolated nerve cords lacking the tracheal system; test: Pre-ecdysis and ecdysis motor patterns in isolated nerve cords lacking the tracheal system; format: cell-based, Manduca sexta; details: absence of the tracheal system
Description: (§2) The entire central nervous system or a chain of abdominal ganglia dissected from pharate fifth instar larvae or pharate pupae were placed in a 300 ml Sylgard bath and bathed in modified Weever's saline. Motor output was recorded extracellularly from dorsal roots of abdominal ganglia A5, A6, and A7 using polyethylene suction electrodes. Potentials were amplified with Grass P-15 AC amplifiers, captured on video tape, and played back on a Gould Brush pen recorder. To record natural pre-ecdysis and ecdtysis, the nervous system was removed after initiation of the behavior.
The tracheal system was removed in all studies. The pattern of pre-eccdysisin isolated pharate 5th instar CNS under natural conditions was quite similar to that elicited by application of 100 nM Mas-ETH. To observe natural pre-ecdysis and ecdysis motor patterns, animals were observed until initiation of pre-ecdysis, at which time nerve cords were quickly removed and prepared for suction electrode recordings. In both instances, pre-ecdysis bursts occurred synchronously in the dorsal nerves of A5-A7 every 10 to 12 seconds with a duration of 5 to 10 sec. Similarly, the burst pattern driving ecdysis in pharate larvae under natural conditions was similar to that resulting from exposure to 1 mM Mas-ETH. Ecdysis bursts occurred every 20 to 30 seconds and were about 20 sec in duration, with an intersegmental delay of about 5 sec. […]

[7] = system: pharate adults; test: Injection into pharate adults: induction of ecdysis (eclosion); format: in vivo, Manduca sexta
Description: Pharate pupae responded to injections (400 pmol to 1 nmol) (FIG. 2B; n=12) up to 48 hours prior to natural ecdysis. […] Ecdysis followed after a period of 50 to 90 min. Pharate adults responded to Mas-ETH injections (1 to 2 nmol) up to 24 hours prior to natural ecdysis (n=10). Rotatory movements of the abdomen began within 3 to 10 min of injection and were followed by a period of relative quiescence.

[8] = system: isolated central nervous system of pharate 5th instar larvae; test: Motor burst patterns of isolated central nervous system of pharate 5th instar larvae, bath application; format: cell-based, Manduca sexta
Description: as §2
For studies involving bath application of synthetic MasETH, pharate 5th instar nerve cords were dissected at -8 hr prior to ecdysis, using liquid-Lilled head and brown mandibles as morphological markers. Pharate pupae were dissected at 8 hours prior to natural ecdysis using brown bars as the morphological marker.
The tracheal system was removed in all studies. The pattern of pre-eccdysisin isolated pharate 5th instar CNS under natural conditions was quite similar to that elicited by application of 100 nM Mas-ETH. To observe natural pre-ecdysis and ecdysis motor patterns, animals were observed until initiation of pre-ecdysis, at which time nerve cords were quickly removed and prepared for suction electrode recordings. In both instances, pre-ecdysis bursts occurred synchronously in the dorsal nerves of A5-A7 every 10 to 12 seconds with a duration of 5 to 10 sec. Similarly, the burst pattern driving ecdysis in pharate larvae under natural conditions was similar to that resulting from exposure to 1 mM Mas-ETH. Ecdysis bursts occurred every 20 to 30 seconds and were about 20 sec in duration, with an intersegmental delay of about 5 sec. Burst durations and intervals between bursts became longer as the behavior progressed, which corresponded to observations of natural behavior patterns. Optimal Mas-ETH concentrations for triggering pre-ecdysis were lower than those necessary for ecdysis.

[9] = system: pharate pupae; test: Injection into pharate pupae: induction of pre-ecdysis and ecdysis; format: in vivo, Manduca sexta; details: 400 pmol to 1 nmol
Description: as §1
Pharate pupae responded to injections (400 pmol to 1 nmol) (FIG. 2B; n=12) up to 48 hours prior to natural ecdysis. […]

ETH-PRP2: 15-mer peptide deduced from the ETH precursor, Gln 20 to Val 34, SEQ ID NO:13 (QVESSFIKPNNVPRV)
biological activity of additional EG peptides [1]: ETH-like biological activity | cardioacceleration [2]: acts as a cardioaccelerator | effect on physiological actions of Mas-ETH [2]: increasing its ecdysis triggering activity

ETH-PRP1: 47-mer peptide, Asn 66 to Met 112 of the ETH precursor, SEQ ID NO:14, chemically synthesized (NYDSENRFDIPKLYPWRAENTELYEDDAQPTNGEEINGFYGKQRENM)
ecdysis behavior ([1]; dose range 50 pmol to 5 nmol): did not elicit ecdysis behavior | latency from injection to preecdysis behavior ([1]; dose range 50 pmol to 5 nmol): 15 to 20 min | pre-ecdysis stimulating activity ([1]; in vivo): pre-ecdysis stimulating activity | biological activity of additional EG peptides [1]: ETH-like biological activity | cardioactivity [3]: causes cardioacceleration

SNEAFDEDVMGYVIKSNKNIPRM (not fully specified (C-terminus)) [Bom-ETH amidated form]
biological activity upon injection [4]: biologically active

CCOc1ccc2nc(S(N)(=O)=O)sc2c1 [Mas-ETH]
dose causing preecdysis followed by ecdysis [5]: ≤ 1 pmol | pre-ecdysis and ecdysis motor patterns of isolated CNS [6]: elicited motor burst patterns; also recorded: can generate pre-ecdysis and ecdysis motor patterns | pre-ecdysis and ecdysis motor patterns of isolated CNS ([6]; listed as ETH): responds to ETH; also recorded: responded; also recorded: not required | time prior to natural ecdysis at which pharate adults respond to injection ([7]; 1 to 2 nmol, n=10): up to 24 hours | condition of emerged adults ([7]; emerged before resorption of molting fluid): could not inflate their wings | interval of pre-ecdysis bursts (every) ([8]; 100 nM, dorsal nerves of A5-A7): 10 to 15 s | pre-ecdysis burst duration ([8]; 100 nM, dorsal nerves of A5-A7): 5 to 7 s | ecdysis burst duration ([8]; 1 mM Mas-ETH): about 20 sec | intersegmental delay of ecdysis bursts ([8]; 1 mM Mas-ETH): about 5 sec | behavior exhibited after injection ([1]; injected at head capsule slip, 34 hours prior to normal ecdysis): both pre-ecdysis and ecdysis motor patterns | outcome of premature ecdysis behavior ([1]; injection 34-10 hours prior to natural ecdysis): ecdysis could not be completed | time prior to normal ecdysis at which larvae respond to injection ([1]; pre-ecdysis behavior, n=7): up to 36 hours | pre-ecdysis by blood pressure measurements ([9]; earlier stages of development): clear rhythm within minutes | time prior to natural ecdysis at which pharate pupae respond to injection ([9]; n=12): up to 48 hours
